# Results published in a melting point compilation (Tetko et al.; mined from patent text by program, amines drawn as free bases though some values may be those of a salt).
row,SMILES,melting point [°C]
1,CC(C)Cc1cc(-c2cccc(C=O)c2)c(S(=O)(=O)NC(C)(C)C)s1,96 to 98
2,CN(O)C(=O)c1ccccc1,< 20
3,CC(C)c1cccc(C(C)C)c1NC(=O)N(Cc1ccccc1)CC1(c2ccccc2)CCCC1,124 to 127
4,CCOC(=O)C(=CNc1coc2ccc(Cl)cc2c1=O)C(=O)OCC,143 to 145
5,C/C(=C\C(=O)NC1CC1)c1cccc(F)c1,119
6,C#CCN(C)CC(O)c1cccc(O)c1 (stereo not given),102 to 103
7,CC(C)(C)OC(=O)N1CCC(C(=O)NC2=NCCCN2)CC1,155 to 160
8,Cc1ccc(N(c2ccc(-c3ccc(-c4ccc(N(c5ccc(C)cc5)c5ccc6c(c5)CCC6)cc4)cc3)cc2)c2ccc3c(c2)CCC3)cc1,207 to 208
9,CCc1ccc(C(Cl)=NOS(C)(=O)=O)cc1,50 to 52
10,COc1ccccc1SCCC(=O)O,91 to 91.5
11,CS(=O)(=O)OCC(CC1CCCCC1)c1ccc(Cl)cc1Cl (stereo not given),105
12,CN1CCC(=C2c3ccccc3CCn3ncnc32)CC1,127
13,CCOC(=O)c1ccccc1NC(=O)CN1C(=O)c2ccccc2C1=O,187
14,Cc1nc(-c2ccc(N3CC(C(=O)O)OC3=O)cc2)no1 (stereo not given),215 to 218
15,Cc1c(C=O)c2c(c(C)c1NC(=O)CC(C)(C)C)C(c1ccc(C(C)C)cc1)CS2 (stereo not given),134 to 140
16,CC(=O)OC1CSC(Oc2cccc3conc23)C(OC(C)=O)C1OC(C)=O (stereo not given),157
17,O=C(NC1N=C(c2ccccc2)c2ccccc2NC1=O)c1ccc(-c2ccccc2)cc1 (racemic),274 to 276
18,Cc1ccccc1C(=O)Nc1nc(C(Cl)(Cl)Cl)ns1,170
19,C=C(CCl)C(C(=O)OC(c1ccccc1)c1ccccc1)N1C(=O)C2N=C(Cc3ccccc3)OC21 (stereo not given),82 to 83
20,O=C1Nc2ccc(Cl)cc2C12OCCCO2,184 to 185
21,CN1CCC(OC(c2cccc(C#CCN)c2)c2nc3ccccc3[nH]2)CC1 (stereo not given),101
22,CC(=O)c1ccc(OCCCBr)c(C)c1,59 to 61
23,CC(=O)OC1CCC2C3CCC4=C([N+](=O)[O-])C(=O)CCC4(C)C3CCC12C (stereo not given),216 to 217

row,SMILES,melting point [°C]
1,O=C(c1ccccc1)c1ccc(N2CCC(N3C(=O)OCc4ccccc43)CC2)c([N+](=O)[O-])c1,272 to 273
2,CC(C)(C)c1cc(C2=CCOCC2)c(O)c(C(C)(C)C)c1,135 to 139
3,Cc1cncc(C)c1-c1c(C)cc(C(C#N)C#N)cc1C,58 to 60
4,CNC(=O)[C@@H](C[C@H](O)[C@H](CC1CCCCC1)NC(=O)[C@H](Cc1cscn1)NC(=O)OC(C)(C)C)C(C)C,183 to 185
5,CC(C)(C)C(=O)CN1C(=O)C(NC(=O)Nc2cccc(C(=O)O)c2)CN(C(=O)C(C)(C)C)c2ccccc21 (stereo not given),231 to 233
6,N#Cc1ccc(Oc2c(Cl)cc(Cl)cc2Cl)cc1Cl,108 to 116
7,O=C(NO)c1ccc(I)cc1O,195 to 196
8,CCc1c(C)c(NC(=O)CC(C)(C)C)c(C)c2c1OCC2c1ccc(C(C)C)cc1 (stereo not given),135 to 136
9,N#Cc1ccc(-c2ccc(S(=O)(=O)N(CCO)CCO)cc2)[nH]c1=O,226 to 228
10,O=C(CCc1ccc2ccccc2n1)NO,159 to 160
11,CCn1cc(C(=O)O)c(=O)c2cc(F)c(N3CCOC(CCl)C3)c(F)c21 (stereo not given),212 to 215
12,O=C1CC2C(CC(OC(=O)c3ccccc3)C2C=CC(O)C2(F)CCCC2)O1 (stereo not given),73 to 74
13,c1ccc2scnc2c1,134 to 135
14,O=[N+]([O-])c1ccc(N2CCN3CCC2CC3)nc1,143 to 146
15,O=S(=O)(c1c(-c2cc(Cl)cc(Cl)c2)[nH]c2c(Cl)cc(Cl)cc12)C(F)(F)F,300 to 302
16,COCc1c(C(=O)O)ncc2[nH]c3cccc(CN4CCOCC4)c3c12,253 to 255
17,COC(=O)c1cc(CC#N)cc(Cc2nc3c(F)c(F)cc(F)c3s2)c1,130 to 132
18,Cn1nc(C(=O)O)nc1CCCC(O)=S,118 to 120
19,CC(=O)Nc1ccsc1C(=O)c1ccccc1,93 to 95
20,C#CC1(NC(=O)C(CCN2CCN(c3ccccc3OC)CC2)c2ccccc2)CCCCC1 (stereo not given),127 to 129
21,O=C(O)c1cc(C#Cc2ccccc2)c(C(=O)O)cc1C#Cc1ccccc1,> 360
22,CC(C)[C@H](NC(=O)N(C)Cc1cscn1)C(=O)N[C@@H](Cc1ccccc1)[C@@H](O)C[C@H](Cc1ccccc1)NC(=O)OCc1cccnc1,71 to 74

# More lines, now with the values ahead:
row,melting point [°C],SMILES
1,158 to 161,CCc1cc(-c2ccc(NC(=O)N3CCc4cc(SC)c(C(F)(F)F)cc43)cc2)ccn1
2,207 to 209,CC(C)(C)[Si](C)(C)Oc1ccc2c(N3C(=O)c4ccccc4C3=O)n[nH]c2c1
3,133 to 135,O=C(Nc1ccc(N2CCN(C(=O)C(O)c3ccc(O)cc3Cl)CC2)nc1)Nc1ccccc1F (stereo not given)
4,176 to 177,Cc1nc(N)c2nc(C)n(CCOc3ccccc3)c2c1C
5,87 to 90,CC1(C)CCC(Cc2ccc(Cl)cc2)=CC1=O
6,139 to 140,CCOC(=O)C(C)n1cc(-c2ccc(Oc3ccccc3)cc2)c2c(N)ncnc21 (stereo not given)
7,219 to 220,CCN1c2ncccc2C(=O)N(C)c2ccc(-c3c[nH]c(C(C)=O)c3)nc21
8,215 to 217,Nc1nc2c(c(Nc3ccccc3)n1)-c1ccccc1C2
9,86 to 90,CCc1c(-c2ccc(OCc3ccccc3)cc2)c2c(COCCCCCCCN3CCCCC3)cc3c(OCc4ccccc4)ccc1n32
10,125 to 130,CN(C)CCNc1ccc(O)c2c1C(=O)c1c(Cl)ccc(Cl)c1C2=O
11,118,CC(C)(C)OC(=O)NCCNC(=O)c1ccc(Br)cn1
12,201,CN1CCC(OC(c2cccc(O)c2)c2nc3ccccc3s2)CC1 (stereo not given)
13,256,c1ccc(C(Sc2nc3ccccc3[nH]2)(c2ccccc2)c2ccccc2)cc1
14,98,Oc1ccc2ccc(Oc3c(Cl)cc(C(F)(F)F)cc3Cl)cc2c1
15,92.2 to 95,CC(=O)Nc1ccc(Oc2ccc3nc(COc4ccc(CC5SC(=O)NC5=O)cc4)n(C)c3c2)cc1 (stereo not given)
16,200 to 202,O=C(Nc1cccc(C(F)(F)F)c1)c1cccnc1NCc1ccc(=O)[nH]c1
17,83 to 85,COc1ccc(F)cc1C(C)(C)CC(O)(C(=O)Nc1ccccc1)C(F)(F)F (stereo not given)
18,131 to 133,COc1cccc2c(CN3CC=C(CCc4ccccc4)CC3)c[nH]c12
19,112 to 114,CNc1ccccc1CS(=O)c1nccn1-c1cc(C)ccn1 (stereo not given)
20,156 to 157,Clc1ccc(CN2CCC(c3cc(-c4cccc(Cl)c4)[nH]n3)CC2)cc1
21,63 to 65,COC(=O)C(Cc1cc(OC)cc(OC)c1)c1ccc(O)cc1 (stereo not given)
22,183 to 185,CCCc1nc(C(C)(C)O)c(C(=O)O)n1Cc1ccc(-c2ccccc2C(=O)C(=O)O)cc1
23,219 to 221,O=C(O)[C@@H]1Cc2ccccc2N1C(=O)CN1CCN(Cc2ccc(Cl)cc2)CC1
24,95 to 100,COc1ccc2c(c1)c(-c1cc3nccnc3[nH]1)cn2CCCN
25,> 275,Cc1cccc(-n2c(-c3sc(NC(=O)c4ccccc4)nc3-c3ccccc3)nc3ccccc3c2=O)c1

row,melting point [°C],SMILES
1,209 to 211,N#CCOc1c(-c2ccccc2)c(=O)[nH]c2cc(Cl)ccc12
2,228 to 229,O=C(O)CN1C(=O)C2(COc3cc4c(cc32)CCO4)c2c(Cl)cccc21 (stereo not given)
3,177 to 178,O=C(O)C1(NS(=O)(=O)c2ccc3oc4cc(Br)ccc4c3c2)CCCC1
4,185 to 187,COc1ccc(N(CCC(=O)NCC(=O)O)C(=O)c2ccc(Cl)cc2)cc1
5,128 to 130,Cc1nc2c(s1)CN=C(c1ccccc1)c1cc(Cl)ccc1-2
6,240 to 243,Oc1ccc2nc(-c3ccc(O)c(F)c3)cc(-c3ccc(F)cc3)c2c1
7,134 to 138,CCc1n[nH]c(C(N)=O)c1NC(=O)c1cc(S(C)(=O)=O)ccc1OCc1ccccn1
8,136 to 137,Clc1cc(Oc2ccc3ncccc3c2)ncn1
9,207 to 210,COc1ccc(CNc2cc3c(Nc4ccc(Cl)c(Br)c4)ncnc3cn2)cc1
10,140 to 142,COC(=O)c1cc(N)c(Oc2ccccc2)c(N)c1
11,124 to 126,COC(=O)c1ccc2ccc(OC(=S)N(C)C)cc2c1
12,147 to 149,COc1ccc(N2C[C@](C)(COc3ccc(C#N)cc3)OC2=O)cc1
13,128,Cc1cccc(C)c1N1Cc2cnc(Nc3ccccc3)nc2N(c2cccc(CCN)c2)C1=O
14,140 to 143,COc1ccc(C(=O)NC(=S)NCc2ccccc2C(N)=O)cc1
15,140 to 142,CCN(CC)C(=O)Cn1c(-c2ccc(C(F)(F)F)cc2)nc2cccnc21
16,58 to 59,COc1ccc(CS(=O)(=O)C(C)(Cc2ccccc2)C(=O)O)cc1 (stereo not given)
17,254 to 255,COc1ccc2c(c1)c(-c1cc3c(-c4c(C)noc4C)ccnc3[nH]1)cn2C
18,199 to 200,Nc1nc2ccccc2c2c1nc(CCCOc1ccccc1)n2CCCNC(=O)N1CCOCC1
19,203 to 204,O=C(Nc1ccc(Oc2ccccc2)cc1)N1CCN(c2cc(C(F)(F)F)nc3ccccc23)CC1
20,201 to 202,Cc1c(Cc2cccc(C(F)(F)F)c2)sc2c(-c3cc(C(=O)NCCO)ccn3)cccc12
21,> 102,Cc1cc(C)cc(-c2[nH]c3ccc(C(C)(C)C(=O)O)cc3c2CCN(CCCCc2ccc(NS(C)(=O)=O)cc2)C(=O)OCc2ccccc2)c1
22,208 to 209,NS(=O)(=O)c1cc(C(=O)O)cc(SCc2ccccc2)c1Sc1ccccc1
23,202 to 204,CC(C)(C)C(=O)Oc1nc2c(N)ncnc2n1Cc1ccccc1
24,142 to 145,Cc1ccc(Oc2c(Cl)c(Oc3ccc(C)cc3)c(Oc3ccc(C)cc3)c(C#N)c2C#N)cc1
25,> 350,NNC(=O)Nc1ccc(-n2ncn(-c3ccc(OCC(F)(F)C(F)F)cc3)c2=O)cc1
